In this assay the target is T1, Recombinant human KIF18A (1-467 His-tagged) protein (Homo sapiens, UniProt Q8NI77).
T1 construct: Recombinant human KIF18A (1-467 His-tagged) protein; His; made in house
Briefly: KIF18A Enzyme Assay: microtubule-stimulated ATPase activity (ADP-Glo). It is filed as biochemical. As to conditions: 30 nM KIF18A, 30 μg/mL pig microtubules, 75 μM ATP, ADP-Glo luminescence. The procedure, abridged:
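IC50 comes from a four-parameter logistic fit over a 22-point, 2-fold series, with ADP quantified by ADP-Glo luminescence. Reactions ran at room temperature: compound plus 30 nM KIF18A(1-467)-His for 15 min, then 75 μM ATP (Km) for 15 min. The buffer held pig microtubules at 30 μg/mL and 1 μM taxol.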
For orientation: ADP-Glo first removes unused ATP, then detects ADP through luciferase.

SMILES strings stand for the structures.

T1 sequence (Q8NI77 1-467): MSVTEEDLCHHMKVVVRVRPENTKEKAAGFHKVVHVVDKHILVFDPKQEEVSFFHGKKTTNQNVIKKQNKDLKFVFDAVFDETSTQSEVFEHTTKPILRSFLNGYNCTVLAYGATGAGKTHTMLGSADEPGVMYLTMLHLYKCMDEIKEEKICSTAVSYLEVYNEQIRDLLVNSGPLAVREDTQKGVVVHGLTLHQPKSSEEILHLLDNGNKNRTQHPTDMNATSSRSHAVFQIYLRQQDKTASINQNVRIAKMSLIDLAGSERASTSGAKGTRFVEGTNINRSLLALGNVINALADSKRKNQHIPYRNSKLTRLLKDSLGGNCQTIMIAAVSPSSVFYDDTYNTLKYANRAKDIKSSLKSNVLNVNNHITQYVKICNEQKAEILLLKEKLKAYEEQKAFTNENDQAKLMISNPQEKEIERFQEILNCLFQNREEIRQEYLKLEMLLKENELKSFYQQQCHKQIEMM
T1 sequence (P02550 whole entry partner): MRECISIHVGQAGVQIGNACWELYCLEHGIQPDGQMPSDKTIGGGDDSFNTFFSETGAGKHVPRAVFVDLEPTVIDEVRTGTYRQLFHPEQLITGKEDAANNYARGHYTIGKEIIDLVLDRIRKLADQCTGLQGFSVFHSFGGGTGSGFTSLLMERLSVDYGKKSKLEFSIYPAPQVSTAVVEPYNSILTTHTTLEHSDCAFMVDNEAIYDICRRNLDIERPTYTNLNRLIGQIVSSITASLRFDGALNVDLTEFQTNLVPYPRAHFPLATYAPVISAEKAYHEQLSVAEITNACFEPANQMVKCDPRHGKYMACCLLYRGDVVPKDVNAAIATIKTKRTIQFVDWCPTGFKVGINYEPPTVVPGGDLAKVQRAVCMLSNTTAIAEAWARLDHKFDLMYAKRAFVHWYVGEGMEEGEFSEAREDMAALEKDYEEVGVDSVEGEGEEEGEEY
T1 sequence (P02554 whole entry partner): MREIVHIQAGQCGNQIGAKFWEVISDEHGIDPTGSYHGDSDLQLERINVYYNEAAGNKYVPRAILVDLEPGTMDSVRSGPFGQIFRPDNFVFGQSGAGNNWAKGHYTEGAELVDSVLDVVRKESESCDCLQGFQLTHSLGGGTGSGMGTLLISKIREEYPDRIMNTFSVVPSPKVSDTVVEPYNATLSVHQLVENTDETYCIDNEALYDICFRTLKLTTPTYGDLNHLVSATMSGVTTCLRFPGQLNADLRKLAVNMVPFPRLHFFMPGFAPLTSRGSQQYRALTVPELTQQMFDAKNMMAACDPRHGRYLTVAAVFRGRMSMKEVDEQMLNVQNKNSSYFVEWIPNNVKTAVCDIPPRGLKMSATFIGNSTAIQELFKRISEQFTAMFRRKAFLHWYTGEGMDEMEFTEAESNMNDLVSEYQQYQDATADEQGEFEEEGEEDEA

In the case of `COC1CN(c2cccc(NC(=O)c3ccc(NC(C)(C)CO)nc3N3CCC4(CC3)CC4)n2)C1` [Example 145, 2-(6-azaspiro[2.5]oct-6-yl)-6-((1-hydroxy-2-methyl-2-propanyl)amino)-N-(6-(3-methoxy-1-azetidinyl)-2-pyridinyl)-3-pyridinecarboxamide], the IC50 (usually the point on the concentration scale where inhibition reaches its midpoint) came to 168 nM.
For `C[C@@H]1CN(c2cccc(NC(=O)c3ccc([C@@](C)(O)CO)nc3N3CCC4(CC3)CC4)n2)CCO1` [Example 168, 2-(6-azaspiro[2.5]octan-6-yl)-6-((2R)-1,2-dihydroxy-2-propanyl)-N-(6-((2R)-2-methyl-4-morpholinyl)-2-pyridinyl)-3-pyridinecarboxamide], the concentration for half-maximal inhibition (IC50) is 88.7 nM.
Under `C[C@H]1COCCN1c1cccc(NC(=O)c2ccc(NC(C)(C)CO)nc2N2CCC3(CC2)CC3)n1` [Example 183, 2-(6-azaspiro[2.5]octan-6-yl)-6-((1-hydroxy-2-methyl-2-propanyl)amino)-N-(6-((3S)-3-methyl-4-morpholinyl)-2-pyridinyl)-3-pyridinecarboxamide] stands 205 nM; under `COC(=O)C(F)(C(=O)OC)c1ccc(C(=O)Nc2cccc(S(=O)(=O)NC(C)(C)C)n2)c(N2CCC3(CC2)CC3)n1` [Example 193, dimethyl (6-(6-azaspiro[2.5]octan-6-yl)-5-((6-((2-methyl-2-propanyl)sulfamoyl)-2-pyridinyl)carbamoyl)-2-pyridinyl)(fluoro)propanedioate], 239 nM.
On to `CC(C)C1CN(c2cccc(NC(=O)c3ccc(NC(C)(C)CO)nc3N3CCC4(CC3)CC4)n2)CCO1` (centres unmarked) [Example 203, 6-((1-hydroxy-2-methylpropan-2-yl)amino)-N-(6-(2-isopropylmorpholino)pyridin-2-yl)-2-(6-azaspiro[2.5]octan-6-yl)nicotinamide], for which the IC50 was 242 nM.
Consider `CC1(C)COC(=O)N1c1ccc(C(=O)Nc2cccc(N3CC[C@H](O)C3(C)C)n2)c(N2CCC3(CC2)CC3)n1` (stereo in doubt) [Example 220, 6-(4,4-dimethyl-2-oxooxazolidin-3-yl)-N-(6-(3-hydroxy-2,2-dimethylpyrrolidin-l-yl)pyridin-2-yl)-2-(6-azaspiro[2.5]octan-6-yl)nicotinamide], for which the IC50 came to 2250 nM.
Then `C[C@@H]1CN(c2cccc(NC(=O)c3ncc(NC(C)(C)CO)nc3N3CCC4(CC3)CC4)n2)CCO1` [Example 104, (R)-5-((1-hydroxy-2-methylpropan-2-yl)amino)-N-(6-(2-methylmorpholino)pyridin-2-yl)-3-(6-azaspiro[2.5]octan-6-yl)pyrazine-2-carboxamide], with 83.4 nM; and `CC(C)(C)NS(=O)(=O)c1cccc(NC(=O)c2ccc([C@](C)(O)C(F)(F)F)nc2N2CCC3(CC2)CC3)n1` (single isomer, unassigned) [Example 154], with 105 nM; and `Cc1cc(NC(=O)c2ccc(NC(C)(C)CO)nc2N2CCC3(CC2)CC3)nc(N2CCOCC2)c1` [Example 155, 2-(6-azaspiro[2.5]octan-6-yl)-6-((1-hydroxy-2-methyl-2-propanyl)amino)-N-(4-methyl-6-(4-morpholinyl)-2-pyridinyl)-3-pyridinecarboxamide], with 71 nM.
Under `CC(C)(CO)Nc1ccc(C(=O)Nc2cccc(N3CCC[C@H](O)C3)n2)c(N2CCC3(CC2)CC3)n1` [Example 228, 2-(6-azaspiro[2.5]octan-6-yl)-6-((1-hydroxy-2-methyl-2-propanyl)amino)-N-(6-((3S)-3-hydroxy-1-piperidinyl)-2-pyridinyl)-3-pyridinecarboxamide] stands 69.7 nM.
Under `C[C@@H]1CN(c2cccc(NC(=O)c3ccc(OCCC(C)(C)N)nc3N3CCC4(CC3)CC4)n2)CCO1` [Example 209, 6-(3-amino-3-methylbutoxy)-2-(6-azaspiro[2.5]octan-6-yl)-N-(6-((2R)-2-methyl-4-morpholinyl)-2-pyridinyl)-3-pyridinecarboxamide] stands 411 nM.
Turning to `Cc1cc(NC(=O)c2ccc(NC(C)(C)CO)nc2N2CCC3(CC2)CC3)nc(N2CCC[C@@H](O)C2)c1` [Example 227, 2-(6-azaspiro[2.5]octan-6-yl)-6-((1-hydroxy-2-methyl-2-propanyl)amino)-N-(6-((3R)-3-hydroxy-1-piperidinyl)-4-methyl-2-pyridinyl)-3-pyridinecarboxamide], the IC50 amounted to 142 nM.
Consider `Cc1cc(NC(=O)c2ccc(CS(C)(=O)=O)nc2N2CCC3(CC2)CC3)nc(N2CCOCC2)c1` [Example 240, 2-(6-azaspiro[2.5]octan-6-yl)-N-(4-methyl-6-(4-morpholinyl)-2-pyridinyl)-6-((methylsulfonyl)methyl)-3-pyridinecarboxamide], for which the half-maximal inhibitory concentration (IC50) turned out to be 107 nM.
Under `CC(C)(CO)Nc1ccc(C(=O)Nc2cccc(N3CCOC(C)(C)C3)n2)c(N2CCC3(CC2)CC3)n1` [Example 130, 2-(6-azaspiro[2.5]oct-6-yl)-N-(6-(2,2-dimethyl-4-morpholinyl)-2-pyridinyl)-6-((2-hydroxy-1,1-dimethylethyl)amino)-3-pyridinecarboxamide] stands 172 nM; under `CC(C)(CO)Nc1ccc(C(=O)Nc2cccc(C3=CCOCC3)n2)c(N2CCC3(CC2)CC3)n1` [Example 138, 2-(6-azaspiro[2.5]oct-6-yl)-N-(6-(3,6-dihydro-2H-pyran-4-yl)-2-pyridinyl)-6-((1-hydroxy-2-methyl-2-propanyl)amino)-3-pyridinecarboxamide], 82.9 nM.
Under `CC(C)(CO)Nc1ccc(C(=O)Nc2cccc(N3CC4(COC4)C3)n2)c(N2CCC3(CC2)CC3)n1` [Example 163, 2-(6-azaspiro[2.5]octan-6-yl)-6-((1-hydroxy-2-methyl-2-propanyl)amino)-N-(6-(2-oxa-6-azaspiro[3.3]heptan-6-yl)-2-pyridinyl)-3-pyridinecarboxamide] stands 159 nM; under `C[C@@H]1CN(c2cccc(NC(=O)c3ccc(NC(C)(C)CO)nc3N3CCC4(CC3)CC4)n2)CCO1` [Example 137, 2-(6-azaspiro[2.5]oct-6-yl)-6-((2-hydroxy-1,1-dimethylethyl)amino)-N-(6-((2R)-2-methyl-4-morpholinyl)-2-pyridinyl)-3-pyridinecarboxamide], 66.9 nM.
Under `C[C@@H]1CO[C@@H](C)CN1c1cccc(NC(=O)c2ccc(NC(C)(C)CO)nc2N2CCC3(CC2)CC3)n1` (racemic) [Example 187, N-(6-((2S,5R)-2,5-dimethylmorpholino)pyridin-2-yl)-6-((1-hydroxy-2-methylpropan-2-yl)amino)-2-(6-azaspiro[2.5]octan-6-yl)nicotinamide] stands 252 nM.
In the case of `CC1CN(c2cccc(NC(=O)c3ccc(NC(C)(C)CO)nc3N3CCC4(CC3)CC4)n2)CCO1` (centres unmarked) [Example 126, 6-((1-hydroxy-2-methylpropan-2-yl)amino)-N-(6-(2-methylmorpholino)pyridin-2-yl)-2-(6-azaspiro[2.5]octan-6-yl)nicotinamide], the IC50 is 60.2 nM.
Under `CC(C)(CO)Nc1cnc(C(=O)Nc2cc(C#N)cc(N3CCOCC3)n2)c(N2CCC3(CC2)CC3)n1` [Example 117, 3-(6-azaspiro[2.5]octan-6-yl)-N-(4-cyano-6-(4-morpholinyl)-2-pyridinyl)-5-((1-hydroxy-2-methyl-2-propanyl)amino)-2-pyrazinecarboxamide] stands 138 nM.

Values taken from patent US12441736B2, “KIF18A inhibitors” (AMGEN INC., priority 2018, dated 2025).
